Assay results from ChEMBL document CHEMBL1148691, “Inhibitors of hepatitis C virus NS3.4A protease. Effect of P4 capping groups on inhibitory potency and pharmacokinetics” (Bioorg Med Chem Lett, 2007).

Assays:
[1] = Inhibition of HCV NS3 4A protease; design: species or system Hepacivirus hominis
[2] = Cytotoxicity against Huh7 cells by MTS assay; type: cell-based, Huh-7; conditions: human
Hepatitis C virus = assay: Inhibition of HCV replicon RNA production in HUh7 cells; type: functional, organism-based, Hepacivirus hominis; conditions: Huh-7
[3] = Selectivity index, ratio of CC50 for Huh7cells to IC50 for HCV; type: functional
[4] = Ratio of drug level in CD1 mouse liver to IC50 for HCV; type: functional, tissue-based
Liver = assay: Drug level in CD1 mouse liver at 50 mg/kg, po; type: ADME, organism-based; design: dose 50 mg/kg, route oral; conditions: in vivo, read-out: Activity
Plasma = assay: Drug level in CD1 mouse plasma at 50 mg/kg, po; type: ADME, organism-based; design: dose 50 mg/kg, route oral; conditions: in vivo
Mus musculus [5] = assay: AUC(0 to 8 hrs) in CD1 mouse liver at 50 mg/kg, po; type: ADME, organism-based; design: dose 50 mg/kg, route oral; conditions: in vivo, 6 h
Mus musculus [6] = assay: AUC(0 to 8 hrs) in CD1 mouse plasma at 50 mg/kg, po; type: ADME, organism-based; design: dose 50 mg/kg, route oral; conditions: in vivo, 6 h

CCC[C@H](NC(=O)[C@@H]1C[C@@H]2CCCC[C@@H]2N1C(=O)[C@@H](NC(=O)[C@H](C1CCCCC1)N1C(=O)c2ccccc2C1=O)C(C)(C)C)C(=O)C(=O)NC1CC1
Ki [1]: 370 nM | CC50 [2]: > 100 µM | IC50 (Hepatitis C virus): > 3000 nM

CCC[C@H](NC(=O)[C@@H]1C[C@@H]2CCCC[C@@H]2N1C(=O)[C@@H](NC(=O)[C@@H](NC(=O)C(=O)NC(C)C)C1CCCCC1)C(C)(C)C)C(=O)C(=O)NC1CC1
Ki [1]: 160 nM | CC50 [2]: > 100 µM | IC50 (Hepatitis C virus): 400 nM | Selectivity index [3]: > 249

CCC[C@H](NC(=O)[C@@H]1C[C@@H]2CCCC[C@@H]2N1C(=O)[C@@H](NC(=O)[C@@H](NC(=O)C(=O)NCc1ccccc1)C1CCCCC1)C(C)(C)C)C(=O)C(=O)NC1CC1
Ki [1]: 140 nM | CC50 [2]: > 100 µM | IC50 (Hepatitis C virus): 260 nM | Selectivity index [3]: > 380

CCC[C@H](NC(=O)[C@@H]1C[C@@H]2CCCC[C@@H]2N1C(=O)[C@@H](NC(=O)[C@@H](NC(=O)c1cccnc1)C1CCCCC1)C(C)(C)C)C(=O)C(=O)NC1CC1
Ki [1]: 240 nM | CC50 [2]: > 100 µM | IC50 (Hepatitis C virus): 1700 nM | Selectivity index [3]: > 58

CCC[C@H](NC(=O)[C@@H]1C[C@@H]2CCCC[C@@H]2N1C(=O)[C@@H](NC(=O)[C@@H](NC(=O)c1ncc[nH]1)C1CCCCC1)C(C)(C)C)C(=O)C(=O)NC1CC1
Ratio [4]: 0.26 | Ki [1]: 120 nM | CC50 [2]: > 100 µM | concentration (Liver): 60 nM | concentration (Plasma): 10 nM | IC50 (Hepatitis C virus): 230 nM | AUC (Mus musculus [5]): 0.47 µM·h | Selectivity index [3]: > 442 | AUC (Mus musculus [6]): 0.05 µM·h

CCC[C@H](NC(=O)[C@@H]1C[C@@H]2CCCC[C@@H]2N1C(=O)[C@@H](NC(=O)[C@@H](NC(=O)[C@@H]1Cc2ccccc2N1)C1CCCCC1)C(C)(C)C)C(=O)C(=O)NC1CC1
Ki [1]: 320 nM | CC50 [2]: > 100 µM | IC50 (Hepatitis C virus): 1100 nM | Selectivity index [3]: > 90

CCC[C@H](NC(=O)[C@@H]1C[C@@H]2CCCC[C@@H]2N1C(=O)[C@@H](NC(=O)[C@@H](NC(=O)c1ccoc1)C1CCCCC1)C(C)(C)C)C(=O)C(=O)NC1CC1
Ki [1]: 240 nM | CC50 [2]: > 100 µM | IC50 (Hepatitis C virus): 1400 nM | Selectivity index [3]: > 71

CCC[C@H](NC(=O)[C@@H]1C[C@@H]2CCCC[C@@H]2N1C(=O)[C@@H](NC(=O)[C@@H](NC(=O)c1cnc2ccccc2n1)C1CCCCC1)C(C)(C)C)C(=O)C(=O)NC1CC1
Ki [1]: 440 nM | CC50 [2]: > 100 µM | IC50 (Hepatitis C virus): 1200 nM | Selectivity index [3]: > 81

CCC[C@H](NC(=O)[C@@H]1C[C@@H]2CCCC[C@@H]2N1C(=O)[C@@H](NC(=O)[C@@H](NC(=O)C1(O)CCCC1)C1CCCCC1)C(C)(C)C)C(=O)C(=O)NC1CC1
Ki [1]: 640 nM | CC50 [2]: > 100 µM | IC50 (Hepatitis C virus): 1600 nM | Selectivity index [3]: > 64

CCC[C@H](NC(=O)[C@@H]1C[C@@H]2CCCC[C@@H]2N1C(=O)[C@@H](NC(=O)[C@@H](NC(=O)C(=O)NC1CC1)C1CCCCC1)C(C)(C)C)C(=O)C(=O)NC1CC1
Ki [1]: 110 nM | CC50 [2]: > 100 µM | IC50 (Hepatitis C virus): 270 nM | Selectivity index [3]: > 375

CCC[C@H](NC(=O)[C@@H]1C[C@@H]2CCCC[C@@H]2N1C(=O)[C@@H](NC(=O)[C@@H](NC(=O)c1cc2cc(F)ccc2[nH]1)C1CCCCC1)C(C)(C)C)C(=O)C(=O)NC1CC1
Ki [1]: 120 nM | CC50 [2]: > 100 µM | IC50 (Hepatitis C virus): 490 nM | Selectivity index [3]: > 203

CCC[C@H](NC(=O)[C@@H]1C[C@@H]2CCCC[C@@H]2N1C(=O)[C@@H](NC(=O)[C@@H](NC(=O)c1ccc[nH]1)C1CCCCC1)C(C)(C)C)C(=O)C(=O)NC1CC1
Ratio [4]: 0.34 | Ki [1]: 90 nM | CC50 [2]: > 100 µM | concentration (Liver): 170 nM | concentration (Plasma): 40 nM | IC50 (Hepatitis C virus): 500 nM | AUC (Mus musculus [5]): 1.3 µM·h | Selectivity index [3]: > 201 | AUC (Mus musculus [6]): 0.36 µM·h

CCC[C@H](NC(=O)[C@@H]1C[C@@H]2CCCC[C@@H]2N1C(=O)[C@@H](NC(=O)[C@@H](NC(=O)c1cc([N+](=O)[O-])c[nH]1)C1CCCCC1)C(C)(C)C)C(=O)C(=O)NC1CC1
Ratio [4]: 0.03 | Ki [1]: 50 nM | CC50 [2]: > 100 µM | concentration (Liver): 10 nM | IC50 (Hepatitis C virus): 370 nM | AUC (Mus musculus [5]): 0.06 µM·h | Selectivity index [3]: > 270

CCC[C@H](NC(=O)[C@@H]1[C@H]2CCC[C@H]2CN1C(=O)[C@@H](NC(=O)[C@@H](NC(=O)c1ncc[nH]1)C1CCCCC1)C(C)(C)C)C(=O)C(=O)NC1CC1
Ratio [4]: 52 | Ki [1]: 30 nM | concentration (Liver): 1300 nM | concentration (Plasma): 40 nM | IC50 (Hepatitis C virus): 200 nM | AUC (Mus musculus [5]): 10.5 µM·h | AUC (Mus musculus [6]): 0.36 µM·h

CCC[C@H](NC(=O)[C@@H]1[C@H]2CCC[C@H]2CN1C(=O)[C@@H](NC(=O)[C@@H](NC(=O)c1cnccn1)C1CCCCC1)C(C)(C)C)C(=O)C(=O)NC1CC1
Ratio [4]: 54 | Ki [1]: 40 nM | CC50 [2]: 82 µM | concentration (Liver): 2400 nM | concentration (Plasma): 370 nM | IC50 (Hepatitis C virus): 350 nM | AUC (Mus musculus [5]): 19 µM·h | Selectivity index [3]: 230 | AUC (Mus musculus [6]): 3 µM·h

CCC[C@H](NC(=O)[C@@H]1C[C@@H]2CCCC[C@@H]2N1C(=O)[C@@H](NC(=O)[C@@H](NC(=O)c1nccn1C)C1CCCCC1)C(C)(C)C)C(=O)C(=O)NC1CC1
Ki [1]: 1200 nM | CC50 [2]: > 100 µM | concentration (Liver): 260 nM | concentration (Plasma): 170 nM | IC50 (Hepatitis C virus): > 3000 nM | AUC (Mus musculus [5]): 2.1 µM·h | AUC (Mus musculus [6]): 1.3 µM·h

CCC[C@H](NC(=O)[C@@H]1C[C@@H]2CCCC[C@@H]2N1C(=O)[C@@H](NC(=O)[C@@H](NC(=O)c1cnccn1)C1CCCCC1)C(C)(C)C)C(=O)C(=O)NC1CC1
Ratio [4]: 0.33 | Ki [1]: 150 nM | CC50 [2]: 47 µM | concentration (Liver): 360 nM | concentration (Plasma): 180 nM | IC50 (Hepatitis C virus): 1100 nM | AUC (Mus musculus [5]): 2.9 µM·h | Selectivity index [3]: 43 | AUC (Mus musculus [6]): 1.5 µM·h

CCC[C@H](NC(=O)[C@@H]1C[C@@H]2CCCC[C@@H]2N1C(=O)[C@@H](NC(=O)[C@@H](NC(=O)c1ccccn1)C1CCCCC1)C(C)(C)C)C(=O)C(=O)NC1CC1
Ki [1]: 520 nM | CC50 [2]: > 100 µM | IC50 (Hepatitis C virus): 1900 nM | Selectivity index [3]: > 52
